# Test results reported in US20050209157A1, “Short bioactive peptides and methods for their use” (priority 2001, published 2005).
# No end group written: not given here.
# Columns and labels:
# [1] = tested on: Candida albicans ATCC 10231; assay: Antimicrobial assay I, modified protocol (tryptic soy broth), MFC; conditions: minimum fungicidal concentration, Table 4
# [2] = tested on: Pseudomonas aeruginosa ATCC 27853; assay: Antimicrobial assay I, modified protocol (tryptic soy broth), MBC; conditions: minimum bactericidal concentration, Table 4
# [3] = tested on: Stapholococcus aureus ATCC 25923; assay: as above; conditions: minimum bactericidal concentration, Table 4
# [4] = tested on: Escherichia coli ATCC 25922; assay: as above; conditions: minimum bactericidal concentration, Table 4
Molecule,MFC Candida A.10231 [1],MBC P. aerug A.27853 [2],MBC S. aur A.25923 [3],MBC E. coli A.25922 [4]
FGKGIGKVGKKLL-NH2 [compound 132],INACT,INACT,INACT,INACT
CC(C)C[C@H](NC(=O)[C@H](C)NC(=O)[C@H](CCCCN)NC(=O)[C@H](C)NC(=O)[C@H](CC(C)C)NC(=O)[C@H](CCCCN)NC(=O)[C@H](C)NC(=O)[C@H](CC(C)C)NC(=O)[C@H](CCCCN)NC(=O)[C@H](C)NC(=O)[C@H](CC(C)C)NC(=O)[C@H](CCCCN)NC(=O)[C@H](CCCCN)NC(=O)[C@H](C)NC(=O)[C@H](CC(C)C)NC(=O)[C@@H](N)CCCCN)C(=O)O [compound 160],>250 µg/mL,>250 µg/mL,>250 µg/mL,>250 µg/mL
FAKLF-NH2 [compound 129],INACT,INACT,INACT,INACT
CC(C)C[C@H](NC(=O)[C@H](CCCCN)NC(=O)[C@H](CC(C)C)NC(=O)[C@H](C)NC(=O)[C@H](CCCCN)NC(=O)[C@H](C)NC(=O)[C@H](CC(C)C)NC(=O)[C@H](CC(C)C)NC(=O)[C@H](CCCCN)NC(=O)[C@H](CCCCN)NC(=O)[C@H](C)NC(=O)[C@@H](N)Cc1ccccc1)C(N)=O [compound 110],>50 µg/mL,>50 µg/mL,>50 µg/mL,8 µg/mL
CC(C)C[C@H](NC(=O)[C@H](CCCCN)NC(=O)[C@H](CC(C)C)NC(=O)[C@H](CCCCN)NC(=O)[C@H](C)NC(=O)[C@H](CC(C)C)NC(=O)[C@H](CCCCN)NC(=O)[C@H](C)NC(=O)[C@H](CC(C)C)NC(=O)[C@H](CC(C)C)NC(=O)[C@H](CCCCN)NC(=O)[C@H](C)NC(=O)[C@@H](N)Cc1ccccc1)C(N)=O [compound 66],40 µg/mL,50 µg/mL,30 µg/mL,40 µg/mL
CC(C)C[C@H](NC(=O)[C@H](CCCCN)NC(=O)[C@H](CC(C)C)NC(=O)[C@H](Cc1c[nH]c2ccccc12)NC(=O)[C@H](CCCCN)NC(=O)[C@H](CCCCN)NC(=O)[C@H](C)NC(=O)[C@H](Cc1c[nH]c2ccccc12)NC(=O)[C@H](CCCCN)NC(=O)[C@H](CCCCN)NC(=O)[C@H](Cc1c[nH]c2ccccc12)NC(=O)[C@H](CC(C)C)NC(=O)[C@@H](N)CCCCN)C(=O)N[C@@H](Cc1c[nH]c2ccccc12)C(=O)N[C@@H](CCCCN)C(=O)N[C@@H](C)C(=O)N[C@@H](Cc1c[nH]c2ccccc12)C(N)=O [compound 163],25 µg/mL,50 µg/mL,25 µg/mL,25 µg/mL
CC[C@H](C)[C@H](NC(=O)[C@H](CCCCN)NC(=O)[C@H](CCCCN)NC(=O)[C@H](Cc1ccccc1)NC(=O)[C@H](CC(C)C)NC(=O)[C@H](CCCCN)NC(=O)[C@H](Cc1c[nH]c2ccccc12)NC(=O)[C@@H](N)CCCCN)C(=O)NCC(=O)N[C@@H](C)C(=O)N[C@H](C(=O)N[C@@H](CC(C)C)C(=O)N[C@@H](CCCCN)C(=O)N[C@H](C(=O)N[C@@H](CC(C)C)C(N)=O)C(C)C)C(C)C [compound 53],30 µg/mL,15 µg/mL,10 µg/mL,15 µg/mL
FALALKA-NH2 [compound 141],INACT,INACT,INACT,INACT
CC(C)C[C@H](NC(=O)[C@H](CCCCN)NC(=O)[C@H](C)NC(=O)[C@H](CC(C)C)NC(=O)[C@H](CC(C)C)NC(=O)[C@H](CCCCN)NC(=O)[C@H](C)NC(=O)[C@@H](N)Cc1ccccc1)C(=O)N[C@@H](C)C(=O)N[C@@H](CCCCN)C(=O)N[C@@H](C)C(=O)N[C@@H](CCCCN)C(=O)NCC(N)=O [compound 96],>50 µg/mL,>50 µg/mL,>50 µg/mL,>50 µg/mL
CC(C)C[C@H](NC(=O)[C@H](C)NC(=O)[C@H](CCCCN)NC(=O)[C@H](CCCCN)NC(=O)[C@H](CC(C)C)NC(=O)[C@H](C)NC(=O)[C@H](CCCCN)NC(=O)[C@H](CC(C)C)NC(=O)[C@H](CC(C)C)NC(=O)[C@H](C)NC(=O)[C@@H](N)Cc1ccccc1)C(N)=O [compound 171],50 µg/mL,100 µg/mL,>250 µg/mL,75 µg/mL
CC(C)C[C@H](NC(=O)[C@H](CCCCN)NC(=O)[C@H](CCCCN)NC(=O)[C@H](C)NC(=O)[C@H](CC(C)C)NC(=O)[C@H](CCCCN)NC(=O)[C@H](C)NC(=O)[C@H](CC(C)C)NC(=O)[C@H](CC(C)C)NC(=O)[C@H](CCCCN)NC(=O)[C@H](C)NC(=O)[C@@H](N)Cc1ccccc1)C(N)=O [compound 49],30 µg/mL,30 µg/mL,50 µg/mL,40 µg/mL
CC(C)C[C@H](NC(=O)[C@H](CCCCN)NC(=O)[C@H](C)NC(=O)[C@H](CC(C)C)NC(=O)[C@H](CC(C)C)NC(=O)[C@H](CCCCN)NC(=O)[C@H](C)NC(=O)[C@@H](N)Cc1ccccc1)C(=O)N[C@@H](C)C(=O)N[C@@H](CCCCN)C(=O)N[C@@H](C)C(=O)N[C@@H](CCCCN)C(=O)N[C@@H](C)C(N)=O [compound 95],>50 µg/mL,>50 µg/mL,>50 µg/mL,>50 µg/mL
CC(C)C[C@H](NC(=O)[C@H](CC(C)C)NC(=O)[C@H](CCCCN)NC(=O)[C@H](CCCCN)NC(=O)[C@H](C)NC(=O)[C@H](CC(C)C)NC(=O)[C@H](CCCCN)NC(=O)[C@H](C)NC(=O)[C@@H](N)Cc1ccccc1)C(N)=O [compound 60],>50 µg/mL,>50 µg/mL,>50 µg/mL,>50 µg/mL
CC(C)C[C@H](NC(=O)[C@H](C)NC(=O)[C@H](CCCCN)NC(=O)[C@H](CCCCN)NC(=O)[C@H](C)NC(=O)[C@H](CC(C)C)NC(=O)[C@H](CCCCN)NC(=O)[C@H](C)NC(=O)[C@H](CC(C)C)NC(=O)[C@H](CC(C)C)NC(=O)[C@H](CCCCN)NC(=O)[C@H](C)NC(=O)[C@@H](N)Cc1ccc(O)cc1)C(N)=O [compound 155],>250 µg/mL,>250 µg/mL,>250 µg/mL,>250 µg/mL
FAKLFAKAFKKAL-NH2 [compound 117],INACT,INACT,INACT,INACT
CC(C)C[C@H](NC(=O)[C@H](C)NC(=O)[C@H](CCCCN)NC(=O)[C@H](CCCCN)NC(=O)[C@H](CC(C)C)NC(=O)[C@H](C)NC(=O)[C@H](CCCCN)NC(=O)[C@H](C)NC(=O)[C@H](CC(C)C)NC(=O)[C@H](C)NC(=O)[C@@H](N)Cc1ccccc1)C(N)=O [compound 166],>250 µg/mL,>250 µg/mL,>250 µg/mL,>250 µg/mL
CC(C)C[C@H](NC(=O)[C@H](CC(C)C)NC(=O)[C@H](CCCCN)NC(=O)[C@H](CC(C)C)NC(=O)[C@H](CC(C)C)NC(=O)[C@H](CCCCN)NC(=O)[C@H](CCCCN)NC(=O)[C@H](Cc1ccc(O)cc1)NC(=O)[C@H](CC(C)C)NC(=O)[C@H](CCCCN)NC(=O)[C@H](CC(C)C)NC(=O)[C@H](CC(C)C)NC(=O)[C@H](CC(C)C)NC(=O)[C@H](CCCCN)NC(=O)[C@H](CC(C)C)NC(=O)[C@H](CC(C)C)NC(=O)[C@@H](N)CCCCN)C(=O)O [compound 156],>250 µg/mL,>250 µg/mL,>250 µg/mL,100 µg/mL
CC(C)C[C@H](NC(=O)[C@H](CC(C)C)NC(=O)[C@H](CCCCN)NC(=O)[C@H](CCCCN)NC(=O)[C@H](C)NC(=O)[C@H](CC(C)C)NC(=O)[C@H](CC(C)C)NC(=O)[C@H](CCCCN)NC(=O)[C@H](C)NC(=O)[C@@H](N)Cc1ccccc1)C(N)=O [compound 57],>50 µg/mL,>50 µg/mL,>50 µg/mL,>50 µg/mL
CC(C)C[C@H](NC(=O)[C@H](CCCCN)NC(=O)[C@H](CC(C)C)NC(=O)[C@H](CC(C)C)NC(=O)[C@H](C)NC(=O)[C@@H](N)Cc1ccccc1)C(N)=O [compound 168],150 µg/mL,100 µg/mL,>250 µg/mL,75 µg/mL
